Assay results: US10053461B2 (Hoffmann-La Roche Inc., priority 2015, dated 2018)

system: HBV DNA; experiment: HBV DNA assay (real-time qPCR of extracellular HBV DNA, HepG2.2.15 cells); type: cell-based; settings: Hepatitis B virus, 144 h; Anti HBV DNA production activity in HepG2.2.15 cells, six days
Protocol: The assay employs real-time qPCR (TaqMan) to directly measure extracellular HBV DNA copy number. HepG2.2.15 cells were plated in 96-well microtiter plates. Only the interior wells were utilized to reduce “edge effects” observed during cell culture, the exterior wells were filled with complete medium to help minimize sample evaporation. On the following day, the HepG2.2.15 cells were washed and the medium was replaced with complete medium containing various concentrations of a test compound in triplicate. 3TC was used as the positive control, while media alone was added to cells as a negative control (virus control, VC). Three days later, the culture medium was replaced with fresh medium containing the appropriately diluted drug. Six days following the initial administration of the test compound, the cell culture supernatant was collected, treated with pronase and then used in a real-time qPCR/TaqMan assay to determine HBV DNA copy numbers. Antiviral activity was calculated from the reduction in HBV DNA levels (IC50).

SMILES | IC50 [nM]
COc1cc2c(cc1OCc1ccccc1)[C@H]1CCC(C)(C)[C@H]1n1cc(C(=O)O)c(=O)cc1-2 (relative stereo) [Example 3, Cis-11-(benzyloxy)-10-methoxy-3,3-dimethyl-7-oxo-1,2,3,3a,7,12b-hexahydrocyclopenta[c]pyrido[2,1-a]isoquinoline-6-carboxylic acid] | 40
COCCCOc1cc2c(cc1Cl)-c1cc(=O)c(C(=O)O)cn1[C@@H]1CCCCC[C@H]21 (relative stereo) [Example 28, cis-13-chloro-12-(3-methoxypropoxy)-2-oxo-2,5a,6,7,8,9,10,10a-octahydrocyclohepta[c]pyrido[2,1-a]isoquinoline-3-carboxylic acid] | < 32

system: HBsAg; experiment: not given; settings: HBsAg secretion reduced by 50% vs no drug control, HepG2.2.15 cells

SMILES | IC50 [nM]
COc1cc2c(cc1OCc1ccccc1)[C@H]1CCC(C)(C)[C@H]1n1cc(C(=O)O)c(=O)cc1-2 [Example 4, (3aS,12bR)-11-(benzyloxy)-10-methoxy-3,3-dimethyl-7-oxo-1,2,3,3a,7,12b-hexahydrocyclopenta[c]pyrido[2,1-a]isoquinoline-6-carboxylic acid] | 3

system: HBsAg; experiment: microbe, parasite or virus in culture; settings: Hepatitis B virus, HepG2.2.15
Protocol: HepG2.2.15 cells (Acs et al. Proc Natl Acad Sci USA, 84, (1987), 4641-4), a constitutively HBV-expressing cell line were cultured in DMEM+Glutamax-I medium (Invitrogen, Carlsbad, Calif., USA), supplemented with 10% fetal bovine serum (Invitrogen) and G418 (Invitrogen) at a final concentration of 200 mg/L and maintained in 5% CO2 at 37° C.
HepG2.2.15 cells were seeded in duplicate into white, 96-well plates at 1.5×10^4 cells/well. The cells were treated with a three-fold serial dilution series of the compounds in DMSO. The final DMSO concentration in all wells was 1% and DMSO was used as no drug control.
The HBsAg chemiluminescence immunoassay (CLIA) kit (Autobio Diagnostics Co., Zhengzhou, China, Catalog number: CL0310-2) was used to measure the levels of secreted HBV antigens semi-quantitatively. For the detection 50 μL/well culture supernatant was used and HBsAg was quantified using HBsAg chemiluminescence immunoassay (CLIA) kit (Autobio Diagnostics Co., Zhengzhou, China, Catalog number: CL0310-2), 50 μL of the supernatant was transferred to the CLIA assay plate and 50 μL of enzyme conjugate reagent was added into each well. The plates were sealed and gently agitated for 1 hour at room temperature. The supernatant-enzyme-mixture was discarded and wells were washed 6 times with 300 μL of PBS. The residual liquid was removed by plating the CLIA plate right side down on absorbent tissue paper. 25 μL of substrates A and B were added to each well. Luminance was measured using a luminometer (Mithras LB 940 Multimode Microplate Reader) after 10 minutes incubation. Dose-response curves were generated and the IC50 value was extrapolated by using the E-WorkBook Suite (ID Business Solutions Ltd., Guildford, UK). The IC50 was defined as the compound concentration (or conditioned media log dilution) at which HBsAg secretion was reduced by 50% compared to the no drug control.
The compounds of the present invention were tested for their activity to inhibit HBsAg as described herein.

SMILES | IC50 [nM]
COc1cc2c(cc1OCc1ccccc1)[C@H]1CCC(C)(C)[C@H]1n1cc(C(=O)O)c(=O)cc1-2 (relative stereo) [Example 3, Cis-11-(benzyloxy)-10-methoxy-3,3-dimethyl-7-oxo-1,2,3,3a,7,12b-hexahydrocyclopenta[c]pyrido[2,1-a]isoquinoline-6-carboxylic acid] | 3
COCCCOc1cc2c(cc1Cl)-c1cc(=O)c(C(=O)O)cn1[C@@H]1CCCCC[C@H]21 (relative stereo) [Example 28, cis-13-chloro-12-(3-methoxypropoxy)-2-oxo-2,5a,6,7,8,9,10,10a-octahydrocyclohepta[c]pyrido[2,1-a]isoquinoline-3-carboxylic acid] | 3
COCCCOc1cc2c(cc1OC)-c1cc(=O)c(C(=O)O)cn1[C@H]1CCN(C(=O)OCc3ccccc3)C[C@H]21 (relative stereo) [Example 29, Trans-2-((benzyloxy)carbonyl)-11-methoxy-12-(3-methoxypropoxy)-8-oxo-2,3,4,4a,8,13b-hexahydro-1H-benzo[c]pyrido[1,2-a][1,6]naphthyridine-7-carboxylic acid] | 152
COCCCOc1cc2c(cc1OC)-c1cc(=O)c(C(=O)O)cn1[C@H]1CCN(C(=O)OCc3ccccc3)C[C@@H]21 (relative stereo) [Example 30, cis-2-((benzyloxy)carbonyl)-11-methoxy-12-(3-methoxypropoxy)-8-oxo-2,3,4,4a,8,13b-hexahydro-1H-benzo[c]pyrido[1,2-a][1,6]naphthyridine-7-carboxylic acid] | 564
COc1cc2c(cc1OCc1ccccc1)[C@@H]1CCCC[C@@H]1n1cc(C(=O)O)c(=O)cc1-2 (relative stereo) [Example 32, cis-12-benzyloxy-11-methoxy-8-oxo-1,2,3,4,4a,13b-hexahydropyrido[1,2-f]phenanthridine-7-carboxylic acid] | 44
COCCCOc1cc2c(cc1OC)-c1cc(=O)c(C(=O)O)cn1[C@@H]1CCOC[C@@H]21 (relative stereo) [Example 33, Trans-11-methoxy-12-(3-methoxypropoxy)-8-oxo-1,3,4,4a,8,13b-hexahydropyrano[4,3-c]pyrido[2,1-a]isoquinoline-7-carboxylic acid] | 265
COCCCOc1cc2c(cc1OC)-c1cc(=O)c(C(=O)O)cn1[C@@H]1CCOC[C@H]21 (relative stereo) [Example 34, cis-11-methoxy-12-(3-methoxypropoxy)-8-oxo-1,3,4,4a,8,13b-hexahydropyrano[4,3-c]pyrido[2,1-a]isoquinoline-7-carboxylic acid] | 186
COCCCOc1cc2c(cc1OC)-c1cc(=O)c(C(=O)O)cn1[C@@H]1CCS(=O)(=O)C[C@@H]21 (relative stereo) [Example 37, Trans-11-methoxy-12-(3-methoxypropoxy)-8-oxo-1,3,4,4a,8,13b-hexahydropyrido[2,1-a]thiopyrano[4,3-c]isoquinoline-7-carboxylic acid 2,2-dioxide] | 2200
COc1cc2c(cc1C)[C@H]1CCC(C)(C)[C@H]1n1cc(C(=O)O)c(=O)cc1-2 (relative stereo) [Example 38, Cis-10-methoxy-3,3,11-trimethyl-7-oxo-1,2,3,3a,7,12b-hexahydrocyclopenta[c]pyrido[2,1-a]isoquinoline-6-carboxylic acid] | 36
CCCc1cc2c(cc1OC)-c1cc(=O)c(C(=O)O)cn1[C@H]1[C@@H]2CCC1(C)C (relative stereo) [Example 40, Cis-10-methoxy-3,3-dimethyl-7-oxo-11-propyl-1,2,3,3a,7,12b-hexahydrocyclopenta[c]pyrido[2,1-a]isoquinoline-6-carboxylic acid] | 19
COc1cc2c(cc1N1CCCC1)[C@H]1CCC(C)(C)[C@H]1n1cc(C(=O)O)c(=O)cc1-2 (relative stereo) [Example 41, Cis-10-methoxy-3,3-dimethyl-7-oxo-11-(pyrrolidin-1-yl)-1,2,3,3a,7,12b-hexahydrocyclopenta[c]pyrido[2,1-a]isoquinoline-6-carboxylic acid] | < 1.6
COc1cc2c(cc1OCc1ccccc1)[C@@H]1CCC(C)(C)[C@@H]1n1cc(C(=O)O)c(=O)cc1-2 [Example 5, (3aR,12bS)-11-(benzyloxy)-10-methoxy-3,3-dimethyl-7-oxo-1,2,3,3a,7,12b-hexahydrocyclopenta[c]pyrido[2,1-a]isoquinoline-6-carboxylic acid] | 308
CCc1cc2c(cc1OC)-c1cc(=O)c(C(=O)O)cn1[C@H]1[C@@H]2CCC1(C)C [Example 39] | 20
